Results: patent US9249129B2, “Morpholino substituted urea derivatives as mTOR inhibitors” (CELLZOME LIMITED, priority 2010, dated 2016)
Where two headings read alike, the source gives them in different places.

Assays:
[1] = target: T1, PI3Kβ (Homo sapiens, UniProt P42338); assay: kinobeads assay, PI3K beta (dot blot detection); type: binding; settings: Table 4, read-out: Inhibition values (IC50) PI3Kb
T1 construct: endogenous in cells; host or cells: Jurkat cells (ATCC TIB-152) lysate, the only lysate described
T1 sequence (P42338 whole entry): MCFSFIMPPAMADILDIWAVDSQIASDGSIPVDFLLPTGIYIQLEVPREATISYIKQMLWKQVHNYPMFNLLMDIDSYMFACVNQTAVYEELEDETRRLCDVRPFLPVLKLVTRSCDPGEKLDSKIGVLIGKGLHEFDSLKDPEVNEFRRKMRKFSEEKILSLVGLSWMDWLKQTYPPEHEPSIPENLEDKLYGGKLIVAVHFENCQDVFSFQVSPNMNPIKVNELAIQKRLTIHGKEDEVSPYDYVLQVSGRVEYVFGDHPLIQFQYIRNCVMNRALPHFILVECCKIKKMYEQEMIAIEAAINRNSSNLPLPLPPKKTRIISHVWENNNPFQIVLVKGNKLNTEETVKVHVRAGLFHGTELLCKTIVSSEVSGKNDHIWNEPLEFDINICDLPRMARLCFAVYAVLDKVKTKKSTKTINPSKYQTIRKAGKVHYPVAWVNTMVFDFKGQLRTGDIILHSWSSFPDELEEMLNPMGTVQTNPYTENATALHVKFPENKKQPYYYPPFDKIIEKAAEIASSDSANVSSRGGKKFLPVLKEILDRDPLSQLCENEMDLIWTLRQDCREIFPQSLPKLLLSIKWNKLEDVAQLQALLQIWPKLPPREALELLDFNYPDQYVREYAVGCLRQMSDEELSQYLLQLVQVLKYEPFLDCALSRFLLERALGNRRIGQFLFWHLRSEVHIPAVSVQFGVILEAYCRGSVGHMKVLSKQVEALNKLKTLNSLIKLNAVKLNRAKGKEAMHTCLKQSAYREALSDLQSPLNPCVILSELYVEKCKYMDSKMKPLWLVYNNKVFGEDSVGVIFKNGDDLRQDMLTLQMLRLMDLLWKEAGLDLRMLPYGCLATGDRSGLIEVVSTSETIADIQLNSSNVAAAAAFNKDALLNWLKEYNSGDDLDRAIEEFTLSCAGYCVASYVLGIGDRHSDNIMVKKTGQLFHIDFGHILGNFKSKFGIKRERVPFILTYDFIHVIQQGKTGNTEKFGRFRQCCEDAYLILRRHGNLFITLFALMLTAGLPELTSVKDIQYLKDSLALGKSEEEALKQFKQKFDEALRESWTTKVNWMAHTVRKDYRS
T1 sequence (P27986 whole entry partner): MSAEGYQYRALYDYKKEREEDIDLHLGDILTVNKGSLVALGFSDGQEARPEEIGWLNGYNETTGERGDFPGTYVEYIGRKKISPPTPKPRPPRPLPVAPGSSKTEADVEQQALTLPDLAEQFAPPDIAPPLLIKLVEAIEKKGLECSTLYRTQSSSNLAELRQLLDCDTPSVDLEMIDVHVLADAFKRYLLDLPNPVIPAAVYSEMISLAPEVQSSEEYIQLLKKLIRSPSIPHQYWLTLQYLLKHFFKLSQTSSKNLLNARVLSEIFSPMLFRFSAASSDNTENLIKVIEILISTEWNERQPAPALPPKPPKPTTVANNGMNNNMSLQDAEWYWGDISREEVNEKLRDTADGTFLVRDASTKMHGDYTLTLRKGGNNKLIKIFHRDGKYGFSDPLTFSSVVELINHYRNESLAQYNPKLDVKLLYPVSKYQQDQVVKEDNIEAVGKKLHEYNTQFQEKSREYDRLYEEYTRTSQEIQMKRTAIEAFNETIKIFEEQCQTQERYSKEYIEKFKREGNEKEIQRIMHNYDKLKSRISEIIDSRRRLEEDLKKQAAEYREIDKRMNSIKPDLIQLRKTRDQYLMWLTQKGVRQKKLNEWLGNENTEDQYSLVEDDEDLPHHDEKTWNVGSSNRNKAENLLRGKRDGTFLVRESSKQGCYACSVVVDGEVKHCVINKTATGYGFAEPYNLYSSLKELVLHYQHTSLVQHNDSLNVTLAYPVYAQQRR

[2] = target: T2, PI3K delta (PI3Kd) (Homo sapiens, UniProt O00329); assay: kinobeads assay, PI3K delta (dot blot detection); type: binding
T2 construct: endogenous in cells; host or cells: Jurkat cells (ATCC TIB-152, clone E6-1), lysate
T2 sequence (O00329 whole entry): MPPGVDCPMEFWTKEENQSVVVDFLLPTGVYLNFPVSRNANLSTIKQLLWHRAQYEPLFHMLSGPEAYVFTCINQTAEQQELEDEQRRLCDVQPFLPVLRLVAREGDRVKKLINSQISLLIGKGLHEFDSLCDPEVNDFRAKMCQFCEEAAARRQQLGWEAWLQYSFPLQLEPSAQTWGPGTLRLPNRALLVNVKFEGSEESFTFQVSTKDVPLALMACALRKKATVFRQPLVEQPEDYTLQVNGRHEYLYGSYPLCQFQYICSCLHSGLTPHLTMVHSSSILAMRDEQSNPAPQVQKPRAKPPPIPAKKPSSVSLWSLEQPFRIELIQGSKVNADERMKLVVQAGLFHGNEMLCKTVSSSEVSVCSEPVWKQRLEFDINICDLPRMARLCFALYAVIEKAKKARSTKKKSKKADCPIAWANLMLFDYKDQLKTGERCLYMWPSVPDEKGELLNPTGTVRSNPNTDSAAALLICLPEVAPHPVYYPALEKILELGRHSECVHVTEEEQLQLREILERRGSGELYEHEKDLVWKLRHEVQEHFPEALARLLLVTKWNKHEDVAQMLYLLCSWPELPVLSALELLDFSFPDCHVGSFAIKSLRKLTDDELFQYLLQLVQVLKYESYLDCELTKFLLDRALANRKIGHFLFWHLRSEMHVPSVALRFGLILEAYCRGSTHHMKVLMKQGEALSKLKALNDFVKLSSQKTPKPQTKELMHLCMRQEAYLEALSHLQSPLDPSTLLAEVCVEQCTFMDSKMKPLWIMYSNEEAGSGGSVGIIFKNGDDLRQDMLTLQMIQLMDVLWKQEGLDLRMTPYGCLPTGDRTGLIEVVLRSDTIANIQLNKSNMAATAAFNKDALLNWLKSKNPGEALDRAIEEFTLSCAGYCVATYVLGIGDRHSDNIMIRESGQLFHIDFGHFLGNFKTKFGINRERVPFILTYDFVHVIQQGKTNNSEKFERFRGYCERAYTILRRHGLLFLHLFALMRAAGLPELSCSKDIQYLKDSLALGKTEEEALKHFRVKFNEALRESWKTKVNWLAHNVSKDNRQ
T2 sequence (P27986 whole entry partner): as the sequence (P27986 whole entry partner) above
Protocol: (§1) The compounds of the present invention as described were tested in the mTOR kinobeads assay as described below. Briefly, test compounds (at various concentrations) and the affinity matrix (1:1 mixture of beads with immobilized phenylthiazole ligand 1 and beads with immobilized phenylmorpholin-chromen ligand; WO 2009/098021) were added to cell lysate aliquots and allowed to bind to the proteins in the lysate sample. After the incubation time the beads with captured proteins were separated from the lysate. Bound proteins were then eluted and the presence of mTOR, PI3K delta (PI3 Kd) and DNA-dependent protein kinase (DNA-PK) was detected and quantified using a specific antibody in a dot blot procedure and the Odyssey infrared detection system. Dose response curves for individual kinases were generated and IC50 values calculated. Kinobeads assays for PI3 kinases (WO-A 2008/015013) and for kinase selectivity profiling (WO 2009/098021) have been previously described.
(§2) The affinity matrix (beads with immobilized phenylmorpholin-chromen ligand) was washed two times with 15 ml of 1×DP buffer containing 0.2% NP40 (IGEPAL® CA-630, Sigma, #13021) and then resupended in 5.5 ml of 1×DP buffer containing 0.2% NP40 (10% beads slurry).
(§3) 5×DP buffer: 250 mM Tris-HCl pH 7.4, 25% Glycerol, 7.5 mM MgCl2, 750 mM NaCl, 5 mM Na3VO4, filter the 5×-lysis buffer through 0.22 μm filter and store in aliquots at −80° C. The 5×DP buffer is diluted to 1×DP buffer containing 1 mM DTT and 25 mM NaF.
(§4) Stock solutions of test compounds were prepared in DMSO. In a 96 well plate 30 μl solution of diluted test compounds at 5 mM in DMSO were prepared. Starting with this solution a 1:3 dilution series (9 steps) was prepared. For control experiments (no test compound) a buffer containing 2% DMSO was used. Compound CZC00018052 served as a positive control (PI-103; Calbiochem catalogue number 528100).
(§5) Jurkat cells (ATCC catalogue number TIB-152 Jurkat, clone E6-1) were grown in 1 litre Spinner flasks (Integra Biosciences, #182101) in suspension in RPMI 1640 medium (Invitrogen, #21875-034) supplemented with 10% Fetal Bovine Serum (Invitrogen) at a density between 0.15×10^6 and 1.2×10^6 cells/ml. Cells were harvested by centrifugation, washed once with 1×PBS buffer (Invitrogen, #14190-094) and cell pellets were frozen in liquid nitrogen and subsequently stored at −80° C.
(§6) Jurkat cells were homogenized in a Potter S homogenizer in lysis buffer: 50 mM Tris-HCl, 0.8% NP40, 5% glycerol, 150 mM NaCl, 1.5 mM MgCl2, 25 mM NaF, 1 mM sodium vanadate, 1 mM DTT, pH 7.5. One complete EDTA-free tablet (protease inhibitor cocktail, Roche Diagnostics, 1873580) per 25 ml buffer was added. The material was dounced 10 times using a mechanized POTTER S, transferred to 50 ml falcon tubes, incubated for 30 minutes on ice and spun down for 10 min at 20,000 g at 4° C. (10,000 rpm in Sorvall SLA600, precooled). The supernatant was transferred to an ultracentrifuge (UZ)-polycarbonate tube (Beckmann, 355654) and spun for 1 hour at 100.000 g at 4° C. (33.500 rpm in Ti50.2, precooled). The supernatant was transferred again to a fresh 50 ml falcon tube, the protein concentration was determined by a Bradford assay (BioRad) and samples containing 50 mg of protein per aliquot were prepared. The samples were immediately used for experiments or frozen in liquid nitrogen and stored frozen at −80° C.
(§7) Jurkat cell lysate (approximately 50 mg protein per plate) was thawed in a water bath at room temperature and then kept on ice. To the thawed cell lysate 1×DP 0.8% NP40 buffer containing protease inhibitors (1 tablet for 25 ml buffer; EDTA-free protease inhibitor cocktail; Roche Diagnostics 1873580) was added in order to reach a final protein concentration of 5 mg/ml total protein. The diluted cell lysate was stored on ice. […]

[3] = target: T3, PI3Kα (Homo sapiens, UniProt P42336); assay: kinobeads assay, PI3K alpha (dot blot detection); type: binding; settings: Table 4, read-out: Inhibition values (IC50) PI3Ka
T3 construct: endogenous in cells; host or cells: Jurkat cells (ATCC TIB-152) lysate, the only lysate described
T3 sequence (P42336 whole entry): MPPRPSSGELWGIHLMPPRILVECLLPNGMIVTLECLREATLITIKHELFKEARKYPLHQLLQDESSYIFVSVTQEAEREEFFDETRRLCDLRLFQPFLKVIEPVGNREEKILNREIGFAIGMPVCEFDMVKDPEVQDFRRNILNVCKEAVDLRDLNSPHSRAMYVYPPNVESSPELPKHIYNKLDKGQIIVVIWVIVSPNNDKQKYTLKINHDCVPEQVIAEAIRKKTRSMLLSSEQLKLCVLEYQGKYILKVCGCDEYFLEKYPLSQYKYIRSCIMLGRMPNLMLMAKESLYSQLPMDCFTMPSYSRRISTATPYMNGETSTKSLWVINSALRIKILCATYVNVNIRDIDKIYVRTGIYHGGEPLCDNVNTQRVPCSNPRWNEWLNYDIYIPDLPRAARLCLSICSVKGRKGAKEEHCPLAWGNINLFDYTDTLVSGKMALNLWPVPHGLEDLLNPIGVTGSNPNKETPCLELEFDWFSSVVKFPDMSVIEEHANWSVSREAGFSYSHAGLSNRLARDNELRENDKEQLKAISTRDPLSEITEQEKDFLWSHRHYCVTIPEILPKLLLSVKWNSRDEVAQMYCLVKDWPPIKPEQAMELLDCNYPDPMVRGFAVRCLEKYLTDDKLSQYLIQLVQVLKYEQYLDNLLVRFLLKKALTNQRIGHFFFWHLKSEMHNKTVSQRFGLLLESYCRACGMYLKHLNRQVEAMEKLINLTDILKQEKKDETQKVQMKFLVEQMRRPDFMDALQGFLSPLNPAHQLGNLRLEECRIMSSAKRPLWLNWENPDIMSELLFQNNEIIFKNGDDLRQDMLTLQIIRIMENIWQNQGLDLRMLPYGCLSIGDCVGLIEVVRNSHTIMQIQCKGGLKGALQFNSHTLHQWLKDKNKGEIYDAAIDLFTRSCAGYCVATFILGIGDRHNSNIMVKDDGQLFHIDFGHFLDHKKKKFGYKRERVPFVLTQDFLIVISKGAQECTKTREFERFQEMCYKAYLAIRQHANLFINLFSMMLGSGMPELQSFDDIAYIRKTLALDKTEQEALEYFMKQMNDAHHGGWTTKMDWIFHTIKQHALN
T3 sequence (P27986 whole entry partner): as the sequence (P27986 whole entry partner) above

[4] = tested on: S6RP serine-240/244 phosphorylation in HEK293T/17 cells; assay: In vitro phospho-S6 cellular assay (pS6RP S240/244); type: cell-based; settings: Homo sapiens, Table 6, 2 hours, S6RP Ser240/244, read-out: pS6 (phospho-S6 cell assay data, activity level)
From the text: In Vitro Phospho-S6 and Phospho-Akt Cellular Assay
Activation of mTOR signaling results in phosphorylation of several downstream targets. In cells, mTOR exists in two different protein complexes. The mTOR Complex-1 (mTORC1) phosphorylates and activates S6 Kinase 1 (S6K1) and S6 Kinase 2 (S6K2) (also known as p70S6K) which then phosphorylate S6 Ribosomal Protein (S6RP) (also known as RPS6). S6RP is phosphorylated on serine 235, serine 236, serine 240 and serine 244 by both pS6K1 and pS6K2. The mTOR Complex-2 (mTORC2) phosphorylates AKT on serine 473 which activates the AKT signaling pathway.
The assay measures a test compound's inhibition of S6RP serine-240/244 phosphorylation and inhibition of Akt serine-473 phosphorylation in human embryonic kidney derived HEK293T/17 cells (ATCC CRL-11268).
The HEK293T/17 cell line is maintained in DMEM media (Invitrogen catalogue number 41965-039) supplemented with 10% FCS at 37° C. in a 5% CO2 humidified incubator.
Cells are seeded in 96-well plates at 40,000 cells/well (pS6RP S240/244 assay) or 80,000 cells/well (pAkt 5473 assay) in 90 μl growth media (DMEM, 2% FCS). Plates are incubated for 1 hour in a humidified incubator to allow the cells to adhere. Cells are treated with 8 concentrations of test compounds or DMSO alone for controls (final DMSO concentration 0.1%) and incubated at 37° C. for 2 hours. Then 20 μl of 5× concentrated lysis buffer (750 mM NaCl, 100 mM Tris pH7.4, 5 mM EDTA, 5 mM EGTA, 5% Triton X-100) is added, plates are sealed and incubated for 15 minutes at 4° C. with gentle shaking. After cell lysis, 25 μl cell lysate is transferred to a MesoScale plate coated with an antibody to pS6RP Ser240/244 (MesoScale Discovery K150DGD-3) or an antibody to pAkt Ser 473 (MesoScale Discovery K151DGD-3). Plates have been blocked before by incubation with 150 μl MesoScale Discovery Blocking Solution-A for 1 hour at room temperature followed by washing with 150 μl 1× Tris wash buffer per well. After the transfer of the cell lysate to the MSD plate, the pS6RP (or pAkt) protein is captured on the coated antibody by incubation at room temperature for 1 hour with gentle shaking. After the capture step the plate is washed three times with 150 μl of 1× Tris wash buffer per well. Then 25 μl detection antibody conjugated with a Sulfo-Tag is added and incubated for 1 hour at room temperature with gentle shaking. Subsequently the antibody solution is removed and the plate is washed 3 times with 150 μl 1× Tris wash buffer per well and 150 μl Read buffer is added. The plates are analysed on a MSD 2400 Plate Reader (MesoScale Discovery). Data analysis is performed using nonlinear regression for a sigmoidal dose-response with a variable slope.

[5] = target: T4, DNA-dependent protein kinase (DNA-PK) (Homo sapiens, UniProt P78527); assay: kinobeads assay, DNA-PK (dot blot detection); type: binding
T4 construct: endogenous in cells; host or cells: Jurkat cells (ATCC TIB-152, clone E6-1), lysate
Protocol: as §1, §2, §3, §4, §5, §6, §7

[6] = target: T5, mTOR (Homo sapiens, UniProt P42345); assay: mTOR kinobeads assay (dot blot detection); type: binding
T5 construct: endogenous in cells; host or cells: Jurkat cells (ATCC TIB-152, clone E6-1), lysate
Protocol: as §1, §2, §3, §4, §5, §6, §7

[7] = target: T6, PI3Kγ (Homo sapiens, UniProt P48736); assay: kinobeads assay, PI3K gamma (dot blot detection); type: binding; settings: Table 4, read-out: Inhibition values (IC50) PI3Kg
T6 construct: endogenous in cells; host or cells: Jurkat cells (ATCC TIB-152) lysate, the only lysate described
T6 sequence (P48736 whole entry): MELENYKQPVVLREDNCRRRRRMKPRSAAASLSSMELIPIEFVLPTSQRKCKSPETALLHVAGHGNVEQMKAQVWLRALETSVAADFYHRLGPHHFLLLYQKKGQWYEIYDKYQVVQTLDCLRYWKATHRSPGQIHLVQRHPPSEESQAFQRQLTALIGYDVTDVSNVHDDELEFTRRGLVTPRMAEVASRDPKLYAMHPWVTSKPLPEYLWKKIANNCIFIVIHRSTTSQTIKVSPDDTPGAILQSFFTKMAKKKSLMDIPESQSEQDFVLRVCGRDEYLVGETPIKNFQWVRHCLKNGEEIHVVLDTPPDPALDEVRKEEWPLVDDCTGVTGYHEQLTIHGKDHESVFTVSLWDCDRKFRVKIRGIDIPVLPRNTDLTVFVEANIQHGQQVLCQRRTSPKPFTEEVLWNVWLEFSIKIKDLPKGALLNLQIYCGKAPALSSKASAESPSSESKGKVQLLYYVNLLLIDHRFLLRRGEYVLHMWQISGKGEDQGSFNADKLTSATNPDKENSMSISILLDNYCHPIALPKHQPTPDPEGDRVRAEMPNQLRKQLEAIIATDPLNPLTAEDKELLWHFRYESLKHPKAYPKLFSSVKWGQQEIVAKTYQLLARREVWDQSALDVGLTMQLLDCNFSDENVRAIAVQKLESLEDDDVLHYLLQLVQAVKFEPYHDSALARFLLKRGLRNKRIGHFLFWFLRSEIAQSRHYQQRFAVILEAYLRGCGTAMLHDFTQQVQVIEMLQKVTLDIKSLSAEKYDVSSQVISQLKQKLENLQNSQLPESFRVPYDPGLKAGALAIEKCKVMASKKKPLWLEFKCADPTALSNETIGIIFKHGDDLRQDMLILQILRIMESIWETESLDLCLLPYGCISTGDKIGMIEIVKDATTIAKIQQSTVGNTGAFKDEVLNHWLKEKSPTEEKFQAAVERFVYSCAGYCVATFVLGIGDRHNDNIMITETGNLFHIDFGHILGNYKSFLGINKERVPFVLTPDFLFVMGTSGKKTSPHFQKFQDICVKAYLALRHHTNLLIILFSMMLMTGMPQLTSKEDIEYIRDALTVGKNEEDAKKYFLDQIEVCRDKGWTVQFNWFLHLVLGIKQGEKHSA

[8] = Table 4, read-out: Inhibition values (IC50) PI3Kd
[9] = Table 4, read-out: Inhibition values (IC50) DNAPK
[10] = Table 4, read-out: Inhibition values (IC50) mTOR
[11] = Table 2, Jurkat cell lysate, read-out: Inhibition values (IC50) PI3Kd
[12] = Table 2, Jurkat cell lysate, read-out: Inhibition values (IC50) DNAPK
[13] = Table 2, Jurkat cell lysate, read-out: Inhibition values (IC50) mTor

Structure (SMILES)	IC50 [1]	IC50 [2, 8]	IC50 [3]	IC50 [4]	IC50 [5, 9]	IC50 [6, 10]	IC50 [7]	IC50 [2, 11]	IC50 [5, 12]	IC50 [6, 13]
COC1CC(NC(=O)Nc2ccc(-c3cc(-c4cc(F)ccc4S(C)(=O)=O)nc(N4CCOC[C@@H]4C)n3)cc2)C1 (stereo partly drawn) [Example 79, (S)-1-(4-(6-(5-fluoro-2-(methylsulfonyl)phenyl)-2-(3-methylmorpholino)pyrimidin-4-yl)phenyl)-3-(3-methoxycyclobutyl)urea]	≥ 10 µM	≥ 10 µM	≥ 10 µM	0.1 to 1 µM	≥ 10 µM	1 to 10 µM	≥ 10 µM			
CCNC(=O)Nc1ccc(-c2nccc(N3CCOC[C@@H]3C)n2)cc1 [Example 37, (S)-1-ethyl-3-(4-(4-(3-methylmorpholino)pyrimidin-2-yl)phenyl)urea]	≥ 10 µM	≥ 10 µM	≥ 10 µM	0.1 to 1 µM	≥ 10 µM	0.1 to 1 µM	≥ 10 µM	≥ 10 µM	≥ 10 µM	1 to 10 µM
C[C@H]1COCCN1c1nc(-c2ccc(NC(=O)NC3COC3)cc2)cc(-c2cc(F)ccc2S(C)(=O)=O)n1 [Example 86, (S)-1-(4-(6-(5-fluoro-2-(methylsulfonyl)phenyl)-2-(3-methylmorpholino)pyrimidin-4-yl)phenyl)-3-(oxetan-3-yl)urea]	≥ 10 µM	≥ 10 µM	≥ 10 µM	0.1 to 1 µM	≥ 10 µM	0.1 to 1 µM	≥ 10 µM			
O=C(Nc1ccc(-c2ccnc(N3CC4CCC(C3)O4)n2)cc1)NC1CC1 [Example 57, 1-(4-(2-(8-oxa-3-azabicyclo[3.2.1]octan-3-yl)pyrimidin-4-yl)phenyl)-3-cyclopropylurea]	≥ 10 µM	≥ 10 µM	≥ 10 µM	0.1 to 1 µM	≥ 10 µM	1 to 10 µM	≥ 10 µM	≥ 10 µM	≥ 10 µM	1 to 10 µM
CCNC(=O)Nc1ccc(-c2ccnc(N3CCOCC3)n2)cc1 [Example 29, 1-ethyl-3-(4-(2-morpholinopyrimidin-4-yl)phenyl)urea]	1 to 10 µM	≥ 10 µM	1 to 10 µM	0.1 to 1 µM	1 to 10 µM	0.1 to 1 µM	≥ 10 µM	≥ 10 µM	1 to 10 µM	1 to 10 µM
O=C(NCCO)Nc1ccc(-c2ccnc(N3CC4CCC(C3)O4)n2)cc1 [Example 59, 1-(4-(2-(8-oxa-3-azabicyclo[3.2.1]octan-3-yl)pyrimidin-4-yl)phenyl)-3-(2-hydroxyethyl)urea]	≥ 10 µM	≥ 10 µM	≥ 10 µM	0.1 to 1 µM	≥ 10 µM	1 to 10 µM	≥ 10 µM	≥ 10 µM	≥ 10 µM	1 to 10 µM
O=C(NCCF)Nc1ccc(-c2nccc(N3CC4CCC(C3)O4)n2)cc1 [Example 52, 1-(4-(4-(8-oxa-3-azabicyclo[3.2.1]octan-3-yl)pyrimidin-2-yl)phenyl)-3-(2-fluoroethyl)urea]	≥ 10 µM	≥ 10 µM	≥ 10 µM	0.1 to 1 µM	1 to 10 µM	0.1 to 1 µM	≥ 10 µM	≥ 10 µM	1 to 10 µM	0.1 to 1 µM
C[C@H]1COCCN1c1cc(-c2cc(F)ccc2S(C)(=O)=O)nc(-c2ccc(NC(=O)NCCF)cc2F)n1 [Example 68, (S)-1-(3-fluoro-4-(4-(5-fluoro-2-(methylsulfonyl)phenyl)-6-(3-methylmorpholino)pyrimidin-2-yl)phenyl)-3-(2-fluoroethyl)urea]	≥ 10 µM	≥ 10 µM	≥ 10 µM	0.1 to 1 µM	≥ 10 µM	1 to 10 µM	≥ 10 µM	≥ 10 µM	≥ 10 µM	1 to 10 µM
CS(=O)(=O)c1ccc(F)cc1-c1cc(-c2ccc(NC(=O)NC3CC3)cc2)nc(N2CC3CCC(C2)O3)n1 [Example 81, 1-(4-(2-(8-oxa-3-azabicyclo[3.2.1]octan-3-yl)-6-(5-fluoro-2-(methylsulfonyl)phenyl)pyrimidin-4-yl)phenyl)-3-cyclopropylurea]	≥ 10 µM	≥ 10 µM	≥ 10 µM	< 0.1 µM	≥ 10 µM	0.1 to 1 µM	≥ 10 µM			
